The target in test [1] is T1, human TREX2 (residues M44-A279) (Homo sapiens, UniProt Q9BQ50).
T1 construct: human TREX2 (residues M44-A279, expressed in E. coli); made in house; host or cells: E. coli
T1 sequence (Q9BQ50 44-279 isoform Q9BQ50-1): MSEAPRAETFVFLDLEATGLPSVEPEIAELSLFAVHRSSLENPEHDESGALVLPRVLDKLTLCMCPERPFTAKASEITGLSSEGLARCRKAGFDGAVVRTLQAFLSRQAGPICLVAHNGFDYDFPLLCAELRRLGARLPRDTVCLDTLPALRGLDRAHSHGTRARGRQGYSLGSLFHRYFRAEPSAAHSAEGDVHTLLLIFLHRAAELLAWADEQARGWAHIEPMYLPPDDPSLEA
Description: TREX2 Biochemical Assay (fluorescence, dsDNA substrate degradation). The settings on record: 2.5 nM TREX2, 60 nM dsDNA substrate, 25 minutes at room temperature. As to the method: Degradation of the dsDNA liberates free fluorophore to produce a fluorescent signal. Specifically, 7.5 μL of N-terminally His-Tev tagged human TREX2 (residues M44-A279, expressed in E. coli and purified in house) in reaction buffer (50 mM Tris (pH 7.4), 150 mM NaCl, 2 mM DTT, 0.1 mg/mL BSA, 0.01% (v/v) Tween-20 and 100 mM MgCl2) was added to a 384-well Black ProxiPlate Plus (Perkin Elmer) which already contained compound (150 nL) at varying concentrations as a 10 point dose-response in DMSO. To this was added 7.5 μL of dsDNA substrate (Strand A: 5′ TEX615/GCT AGG CAG 3′; Strand B: 5′ CTG CCT AGC/IAbRQSp (IDT)) in reaction buffer. Final concentrations were 2.5 nM TREX2, 60 nM dsDNA substrate in reaction buffer with 1.0% DMSO (v/v). After 25 minutes at room temperature, reactions were quenched by the addition of 5 μL of stop buffer (same as reaction buffer plus 200 mM EDTA). Final concentrations in the quenched reaction mixture were […] TREX2, 45 nM DNA and 50 mM EDTA in a volume of 20 μL. After a 5-minute incubation at room temperature, plates were read in a laser sourced Envision (Perkin-Elmer), measuring fluorescence at 615 nm following excitation w/570 nm light. IC50 values were calculated by comparing the measured fluorescence at 615 nm ratio relative to control wells pre-quenched w/stop buffer (100% inhibition) and no inhibitor (0% inhibition) controls as using non-linear least square four parameter fits and either Genedata or GraphPad Prism (GraphPad Software, Inc.).

A further test has as its target T2, full length human TREX1 (Homo sapiens, UniProt Q9NSU2).
T2 construct: N-terminally His-Tev tagged full length human TREX1; made in house; host or cells: E. coli
T2 sequence (Q9NSU2 1-314): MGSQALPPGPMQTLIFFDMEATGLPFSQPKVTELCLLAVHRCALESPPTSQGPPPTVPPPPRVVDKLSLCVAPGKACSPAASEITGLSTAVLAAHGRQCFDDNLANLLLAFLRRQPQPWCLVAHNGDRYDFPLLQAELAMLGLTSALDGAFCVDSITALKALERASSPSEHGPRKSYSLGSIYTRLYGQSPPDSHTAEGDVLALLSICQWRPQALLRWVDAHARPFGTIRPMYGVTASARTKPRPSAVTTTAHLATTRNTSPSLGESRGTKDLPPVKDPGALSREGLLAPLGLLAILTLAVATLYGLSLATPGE
Put plainly: TREX1 Biochemical Assay (fluorescence, dsDNA substrate degradation). The settings on record: 150 pM TREX1, 60 nM dsDNA substrate, 25 minutes at room temperature. The protocol: Degradation of the dsDNA liberates free fluorophore to produce a fluorescent signal. Specifically, 7.5 μL of N-terminally His-Tev tagged full length human TREX1 (expressed in E. coli and purified in house) in reaction buffer (50 mM Tris (pH 7.4), 150 mM NaCl, 2 mM DTT, 0.1 mg/mL BSA, 0.01% (v/v) Tween-20 and 100 mM MgCl2) was added to a 384-well Black ProxiPlate Plus (Perkin Elmer) which already contained compound (150 nL) at varying concentrations as a 10 point dose-response in DMSO. To this was added 7.5 μL of dsDNA substrate (Strand A: 5′ TEX615/GCT AGG CAG 3′; Strand B: 5′ CTG CCT AGC/IAbRQSp (Integrated DNA Technologies)) in reaction buffer. Final concentrations were 150 pM TREX1, 60 nM dsDNA substrate in reaction buffer with 1.0% DMSO (v/v). After 25 minutes at room temperature, reactions were quenched by the addition of 5 μL of stop buffer (same as reaction buffer plus 200 mM EDTA). Final concentrations in the quenched reaction were 112.5 pM TREX1, 45 nM DNA and 50 mM EDTA in a volume of 20 μL. After a 5-minute incubation at room temperature, plates were read in a laser sourced Envision (Perkin-Elmer), measuring fluorescence at 615 nm following excitation w/570 nm light. IC50 values were calculated by comparing the measured fluorescence at 615 nm ratio relative to control wells pre-quenched w/stop buffer (100% inhibition) and no inhibitor (0% inhibition) controls as using non-linear least square four parameter fits and either Genedata or GraphPad Prism (GraphPad Software, Inc.).

For the compound `CN(c1nc(C(=O)Nc2cncs2)c(O)c(=O)n1C)C(c1ccccc1)c1ccccc1` [Example 31, 2-(benzhydryl(methyl)amino)-5-hydroxy-1-methyl-6-oxo-N-(thiazol-5-yl)-1,6-dihydropyrimidine-4-carboxamide], the IC50 in test [1] fell in the range of 1 to 10 µM; at full length human TREX1, 0.1 to 1 µM.

Take `Cc1nocc1NC(=O)c1nc(N(C)C(c2ccccc2)c2ccccc2)n(C)c(=O)c1O` [Example 32, 2-(benzhydryl(methyl)amino)-5-hydroxy-1-methyl-N-(3-methylisoxazol-4-yl)-6-oxo-1,6-dihydropyrimidine-4-carboxamide]: the results for the IC50 (in test [1]; at full length human TREX1) were 1 to 10 µM and < 0.1 µM, respectively.

On to `Cc1noc(C)c1NC(=O)c1nc(N(C)C(c2ccccc2)c2ccccc2)n(C)c(=O)c1O` [Example 33, 2-(benzhydryl(methyl)amino)-N-(3,5-dimethylisoxazol-4-yl)-5-hydroxy-1-methyl-6-oxo-1,6-dihydropyrimidine-4-carboxamide], for which the IC50 lay within 10 to 100 µM in test [1] and 0.1 to 1 µM on full length human TREX1.

Take `CN(c1nc(C(=O)Nc2cnnn2C)c(O)c(=O)n1C)C(c1ccccc1)c1ccccc1` [Example 34, 2-(benzhydryl(methyl)amino)-5-hydroxy-1-methyl-N-(1-methyl-1H-1,2,3-triazol-5-yl)-6-oxo-1,6-dihydropyrimidine-4-carboxamide]: the IC50 (in test [1]; against full length human TREX1) was 1 to 10 µM throughout.

Regarding `CN(c1nc(C(=O)Nc2ccnn2C)c(O)c(=O)n1C)C(c1ccccc1)c1ccccc1` [Example 35, 2-(benzhydryl(methyl)amino)-5-hydroxy-1-methyl-N-(1-methyl-1H-pyrazol-5-yl)-6-oxo-1,6-dihydropyrimidine-4-carboxamide], the IC50 lay within 10 to 100 µM in test [1] and 1 to 10 µM at full length human TREX1.

For `Cc1oncc1NC(=O)c1nc(N(C)C(c2ccccc2)c2ccccc2)n(C)c(=O)c1O` [Example 36, 2-(benzhydryl(methyl)amino)-5-hydroxy-1-methyl-N-(5-methylisoxazol-4-yl)-6-oxo-1,6-dihydropyrimidine-4-carboxamide], the values for the IC50 (in test [1]; on full length human TREX1) were 1 to 10 µM and 0.1 to 1 µM, respectively.

For `Cc1onc(NC(=O)c2nc(N(C)C(c3ccccc3)c3ccccc3)n(C)c(=O)c2O)c1C` [Example 37, 2-(benzhydryl(methyl)amino)-N-(4,5-dimethylisoxazol-3-yl)-5-hydroxy-1-methyl-6-oxo-1,6-dihydropyrimidine-4-carboxamide], the IC50 in test [1] lay within 10 to 100 µM; at full length human TREX1, 1 to 10 µM.

As to `CN(c1nc(C(=O)Nc2nnco2)c(O)c(=O)n1C)C(c1ccccc1)c1ccccc1` [Example 38, 2-(benzhydryl(methyl)amino)-5-hydroxy-1-methyl-N-(1,3,4-oxadiazol-2-yl)-6-oxo-1,6-dihydropyrimidine-4-carboxamide], the IC50 lay in the range of 10 to 100 µM in test [1] and 1 to 10 µM against full length human TREX1.

For the compound `CN(c1nc(C(=O)Nc2ccon2)c(O)c(=O)n1C)C(c1ccccc1)c1ccccc1` [Example 39, 2-(benzhydryl(methyl)amino)-5-hydroxy-N-(isoxazol-3-yl)-1-methyl-6-oxo-1,6-dihydropyrimidine-4-carboxamide], the IC50 in test [1] is 10 to 100 µM; against full length human TREX1, 0.1 to 1 µM.

The values are drawn from US20230167070A1, “MODULATORS OF TREX1” (Constellation Pharmaceuticals, Inc., priority 2020, published 2023).
